Results on 17 molecules are retold here after patent publication US9868763B2, “Modulators of protease activated receptors” (The University of Queensland, priority 2011, dated 2018).

As usually defined, the IC50 is the concentration that gives 50% inhibition. Read a low IC50 as inhibition by little substance.

Data set [1] concerns the target T1, PAR2 (Homo sapiens, UniProt P55085).
T1 sequence (P55085 26-397): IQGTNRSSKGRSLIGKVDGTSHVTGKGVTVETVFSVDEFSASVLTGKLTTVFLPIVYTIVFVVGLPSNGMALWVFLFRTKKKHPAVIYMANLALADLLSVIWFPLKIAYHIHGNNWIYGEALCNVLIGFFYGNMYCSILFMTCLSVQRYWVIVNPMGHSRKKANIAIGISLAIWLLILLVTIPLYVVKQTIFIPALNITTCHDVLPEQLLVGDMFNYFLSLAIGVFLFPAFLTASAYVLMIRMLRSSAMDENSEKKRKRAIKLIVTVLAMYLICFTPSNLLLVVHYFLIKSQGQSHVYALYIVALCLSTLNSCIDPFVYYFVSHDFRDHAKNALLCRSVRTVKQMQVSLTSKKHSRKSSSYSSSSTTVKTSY
The experiment in a line: PAR2 agonist inhibition (antagonism): intracellular Ca2+ release in HT29 cells. Particulars: other ligands; inhibiting Ca2+ release in HT29 cells; 30 min pre-incubation, agonist at EC80. Also on record: endogenous in cells; host or cells: HT29 (human colorectal adenocarcinoma). It is filed as cell-based. The method, then: Cells are seeded overnight in 96-well black walled, clear bottomed, plate at approximately 2×10^4 to 4×10^5 cells per well. […] The cells are then washed twice with HBSS and transferred to a Polarstar spectrofluorimeter (BMG, Durham N.C.).
The cells are prepared as outlined above then treated with the ‘putative’ antagonist 30 min prior to the addition of either trypsin or a synthetic agonist at a concentration equal to the agonists EC80.
The cells were then treated with 1 μM of the PAR2 agonist 2f-LIGRLO-NH2 (FIG. 2A, n=5) or 100 nM Trypsin (FIG. 2B, n=1). Each data point represents mean±SEM. Net changes in fluorescence were calculated as a percentage relative to the maximum response given 1 μM 2f-LIGRLO-NH2 or 100 nM Trypsin. Changes in fluorescence (% response) were plotted against logarithmic compound concentrations. The half maximal inhibitory concentration (IC50) values were derived from the dose response curve using a nonlinear regression curve in Graphpad Prism v5.

Data set [2] concerns 2furoyl-LIGRLO-NH2-induced paw oedema. The experiment in a line: PAR2 agonist-induced paw oedema. It is filed as in vivo, Wistar rat. Particulars: 10 mg/kg p.o. in olive oil, agonist 350 μg/paw 2 h after oral dose. The method, then: The methods used are based on those previously described (Kelso, E. B., et al. Arthritis Rheum 2007, 56, 765-71; Kelso, E. B., et al. J Pharmacol Exp Ther 2006, 316, 1017-24; and Vergnolle, N. J Immunol 1999, 163, 5064-9). Male Wistar rats (n=3 per group) are used. Briefly, rats are given either 5 or 10 mg/kg of a compound of the present invention (p.o. via gavage in olive oil, approx. 500 μL, weight adjusted). Control animals receive only olive oil (500 μL p.o.). Two hours later, the PAR2 agonist 2-furoyl-LIGRLO (350 μg/paw in saline, 100 μL) is injected into the plantar surface (i.pl.) of the right paw pad using a 30 G needle. The left paw acts as a control, receiving saline only. Paw thickness and width are measured after 30 minutes and hourly using digital calipers (World Precision Instruments, USA) and swelling is calculated in area (mm^2; thickness multiplied by width) and expressed as a percentage change from baseline of each individual paw.
Based on previous methods (Kelso E B et al., J Pharmacol Exp Ther 2006, 316(3):1017-24; Suen J Y et al., Br J Pharmacol 2011, doi: 10.1111/j.1476-5381.2011.01610.x.), PAR2 antagonist 52 (10 mg/kg s.c.; n=4), ENMD-1068 (100 mg/kg s.c.; n=4) or vehicle control (DMSO s.c.; n=2) were administered to male Wistar rats. Baseline paw thickness and width were measured using digital calipers (World Precision Instruments, USA) expressed in area (mm^2; thickness×width). Fifteen minutes later, 2Furoyl-LIGLRO-NH2 (350 μg/paw in 100 μL saline) was injected into of the right hind paw pad (intraplantar, i.pl.). The left hind paw acted as a control, receiving saline only. In a separate experiment, vehicle (500 μL olive oil) versus PAR2 antagonist 52 (10 mg/kg p.o. in 500 μL olive oil) only were administered orally to two groups of rats (4 per group). Two hours later, β-tryptase (human recombinant lung, 20 μg in 100 μL saline) was injected into the right hind paw pad (vehicle in left for control) of all animals in each group. In all experiments, paw swelling was measured and expressed in area (mm^2; thickness×width) and plotted as % change from baseline of each individual paw.

A short description of data set [3]: Stability in rat liver homogenate. It is filed as in vitro ADME, Wistar rat. Particulars: 37 °C, up to 180 min. The protocol: Blood and liver is collected form non-drug dosed male and female Wistar rats (aged 8-9 weeks, 200-250 g and 250-300 g respectively). Bloods are centrifuged at 8 K rpm for 5 min. Plasma are pooled and stored at −80° C. for later use. The rat livers are homogenized, diluted with three volumes of PBS, cloth filtered. The filtrate is used directly for stability studies.
Each compound is dissolved in DMSO to make 5 mM stock solution. 10 μL of the stock is diluted with either rat plasma or liver homogenate (490 μL) to make up a starting concentration of […] (triplicates). The mixtures are vortexed and incubated at 37° C. At each time point of 0, 30, 60 and 180 minutes, 100 μL of the mixture is taken and diluted with 300 μL of acetonitrile. The mixture is vortexed and centrifuged. 350 μL of the liquid is transferred into a microfuge tube and concentrated using a rotational vacuum concentrator (Christ Beta-RVC, supplied by Quantum Scientific). 100 μL of acetonitrile-water (9:1, v/v) is added to the residue, vortexed and immediately analysed by LCMS/MS. Data from these experiments are expressed as percent of peak area recorded from the LCMS/MS trace at time zero (t0).

Data set [4] concerns the target T2, PAR2 (Mus musculus, UniProt P55086).
T2 construct: endogenous in cells; host or cells: MIN6 (mouse pancreatic beta cell line)
T2 sequence (P55086 26-399): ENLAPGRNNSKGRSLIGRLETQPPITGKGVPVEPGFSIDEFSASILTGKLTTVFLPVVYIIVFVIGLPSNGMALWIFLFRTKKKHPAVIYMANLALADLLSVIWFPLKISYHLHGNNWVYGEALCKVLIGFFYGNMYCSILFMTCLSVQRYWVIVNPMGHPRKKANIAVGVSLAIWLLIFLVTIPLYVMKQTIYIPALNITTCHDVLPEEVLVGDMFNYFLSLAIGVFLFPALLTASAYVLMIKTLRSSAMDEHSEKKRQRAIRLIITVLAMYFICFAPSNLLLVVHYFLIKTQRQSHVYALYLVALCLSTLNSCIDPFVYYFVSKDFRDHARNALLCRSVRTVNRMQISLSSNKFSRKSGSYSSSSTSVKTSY
Kind of data set: Intracellular calcium mobilization in MIN6 beta cells. The class given is cell-based. Conditions: concentration-dependent. The method, then: Results: Pathogenesis of pancreatic dysfunction is linked to chronic nutritional surplus and elevated fatty acids, so in vivo and in vitro effects of compound 52 were evaluated on rat pancreas and mouse MIN6 beta cells. […] PAR2 agonists and compound 52 were further evaluated in vitro for glucose-stimulated insulin secretion (GSIS) and intracellular calcium mobilization in mouse MIN6 beta cells.

Data set [5] deals with T1, PAR2. Conditions: cited from earlier work.
For data set [6], the system named is TNBS-induced chronic colitis. Kind of data set: TNBS-induced chronic colitis model. It is filed as in vivo, rat. Conditions: 52 10 mg/kg/day, sulfasalazine 100 mg/kg/day p.o. The protocol:
On day 0, rats were weighed, given respective treatments of either sulfasalazine (100 mg/kg in olive oil p.o.), compound 52 (10 mg/kg in olive oil), or vehicle (500 l olive oil p.o.), and fasted for 24 h with water supplied ad libitum. The next day (day 1), rats were weighed, dosed with respective compound, and anesthetized with isofluorane. A polyethylene catheter was inserted intrarectally (8 cm). Control and drug-treated animals received an intracolonic dose of TNBS (80 mg/kg in saline and 250 l, 50% ethanol in water) (Fiorucci at al., 2001). Sham animals received vehicle only, with TNBS replaced by equivolume water. Rats were maintained in an inclined position (40°) for 30 min, then allowed to recover with food and water supplied. Rats were dosed daily with the respective compound, weighed, and scored for general health and disease progression. All rats were sacrificed on day 8 of experimentation unless they were sacrificed earlier. Disease progression and post-mortem colonic histopathology was scored by the following methods. PAR2 and tryptase co-localization were investigated by using immunohistochemistry.
DAI for both acute and chronic models was assessed and scored by an expert blinded to treatments. Scores incorporated mobility, gastrointestinal pathology, discomfort, and generalized sickness behaviour criteria (each scored 0-3). Any animal that reached stage 3 in any criteria was euthanized by CO2 inhalation and recorded as a disease-related mortality. Scores were summed and expressed as total disease score (maximum 12). DAI was measured at endpoint only (10 h) in the acute study and daily in the chronic TNBS study.
Colons were dissected post-mortem and given a macroscopic disease score based on that described previously (Bobin-Dubigeon et al., 2001) with some minor alterations (maximal score 14). The entire colon length was removed between the ileocolic and colorectal junction. Length and maximal distension width were measured. Sections of affected colon were taken for biochemical analysis, histology, and wet/dry weight.

Molecule `CC[C@H](C)[C@@H](NC(=O)[C@H](CC1CCCCC1)NC(=O)C1CCCN1)C(=O)N1CCC2(C=Cc3ccccc32)CC1` (some centres unmarked) [Compound 50] gave a 50% inhibitory concentration (IC50) on PAR2 [1] of 50 µM. Molecule `CC[C@H](C)[C@@H](NC(=O)[C@H](CC1CCCCC1)NC(=O)c1ccno1)C(=O)N1CCC2(CCc3ccccc32)CC1` [Compound 53] gave a 50% inhibitory concentration (IC50) at PAR2 [1] of 3 µM. Still for that read-out and setting: the same measure for `CC[C@H](C)[C@@H](NC(=O)[C@H](CC1CCCCC1)NC(=O)c1c[nH]cn1)C(=O)N1CCC2(C=Cc3ccccc32)CC1` [Compound 47]: 10 µM. Take `CO[C@H](C)[C@@H](NC(=O)[C@H](CC1CCCCC1)NC(=O)c1ccno1)C(=O)N1CCC2(C=Cc3ccccc32)CC1` [Compound 44, 5-isoxazoyl-Cha-Thr(Me)-spiro[indene-1,4′-piperidine]]: in data set [2], the “paw swelling induced by 2-f-LIGRLO-NH2” value was “reduced the paw swelling”. For the same molecule, the “stability in rat liver homogenate” value in data set [3] was “decomposed to varied degree”. At PAR2 [1], `CC[C@H](C)[C@@H](NC(=O)[C@H](CC1CCCCC1)NC(=O)c1nc[nH]n1)C(=O)N1CCC2(C=Cc3ccccc32)CC1` [Compound 45] showed an IC50 of 15 µM. For the molecule `CC[C@H](C)[C@@H](NC(=O)[C@H](CC1CCCCC1)NC(=O)C1CCC(=O)N1)C(=O)N1CCC2(C=Cc3ccccc32)CC1` (some centres unmarked) [Compound 49], at PAR2 [1], the 50% inhibitory concentration (IC50) came to 25 µM. SLIGRL-NH2: the “intracellular calcium release in MIN6 beta cells” value on PAR2 [4] was “activated intracellular calcium release”. In the case of `CC[C@H](C)[C@@H](NC(=O)[C@H](CC1CCCCC1)NC(=O)C1CCNCC1)C(=O)N1CCC2(C=Cc3ccccc32)CC1` [Compound 48], the IC50 on PAR2 [1] was 50 µM. That is a double-digit micromolar value. As for 2-furoyl-LIGRL-NH2, on PAR2 [5], the “agonist potency higher than SLIGRL-NH2” value is recorded as around 20 fold; the “selectivity among PARs” value was “selective for PAR2 over PAR1 and PAR4”. `O=C(O)c1cc(/N=N/c2ccc(S(=O)(=O)Nc3ccccn3)cc2)ccc1O` [sulfasalazine, reference compound] had a TNBS-mediated mortality in data set [6] of 33.3%. The “DAI compared with TNBS-controls” value in data set [6] (from day 2 onward) is given as “marked improvements in DAI”. As to trypsin, at PAR2 [4], the “intracellular calcium release in MIN6 beta cells” value is recorded as “activated intracellular calcium release”. `CC[C@H](C)[C@@H](NC(=O)[C@H](CC1CCCCC1)NC(=O)c1cc(C)on1)C(=O)N1CCC2(C=Cc3ccccc32)CC1` [Compound 46] registered an IC50 at PAR2 [1] of 25 µM.

On to `CC[C@H](C)[C@H](NC(=O)[C@H](CC1CCCCC1)NC(=O)c1ccno1)C(=O)NCc1ccccc1OC` [Compound 18, 5-isoxazoyl-Cha-Ile-aminomethyl-(2-methoxy)phenyl], for which the “paw swelling induced by 2-f-LIGRLO-NH2” value in data set [2] is listed as “reduced the paw swelling”. For the same molecule, the “stability in rat liver homogenate” value in data set [3] is reported as “decomposed to varied degree”. Take `CC[C@H](C)[C@@H](NC(=O)[C@H](CC1CCCCC1)NC(=O)c1cc(N)no1)C(=O)N1CCC2(C=Cc3ccccc32)CC1` [Compound 42, 5-(3-amino-isoxazoyl)-Cha-Ile-spiro[indene-1,4′-piperidine]]: in data set [2], the “paw swelling induced by 2-f-LIGRLO-NH2” value was “reduced the paw swelling”. For the same molecule, the “stability in rat liver homogenate” value in data set [3] is reported as “decomposed to varied degree”.

With `CC[C@H](C)[C@@H](NC(=O)[C@@H](N)CC1CCCCC1)C(=O)N1CCC2(C=Cc3ccccc32)CC1` [Compound 41], on PAR2 [1], the 50% inhibitory concentration (IC50) came out at 17 µM. On to `CC[C@H](C)[C@H](NC(=O)[C@H](CC1CCCCC1)NC(=O)c1ccno1)C(=O)N1CCC(c2ccccc2)CC1` [Compound 30, 5-isoxazoyl-Cha-Ile-(4-phenyl)piperidine], for which the “paw swelling induced by 2-f-LIGRLO-NH2” value in data set [2] is given as “reduced the paw swelling”. In data set [3], the “stability in rat liver homogenate” value was “decomposed to varied degree”. As to `CC[C@H](C)[C@H](C(=O)N1CCC2(C=Cc3ccccc32)CC1)N(C)C(=O)[C@@H](N)CC1CCCCC1` [Compound 51], the IC50 at PAR2 [1] lay in the range of 5 to 10 µM.
